Assay results taken from publication PMC6429262, “Design and Synthesis of Novel Anti-Proliferative Emodin Derivatives and Studies on their Cell Cycle Arrest, Apoptosis Pathway and Migration” (Molecules, 2019).

What was measured:
HepG2 cells [1] = test: Apoptosis analysis, annexin V-FITC/PI flow cytometry; assay type: cell-based, human; settings: for Apoptosis percentage, Early apoptosis / Apoptosis percentage, Late apoptosis / Apoptosis percentage, Overall apoptosis: mean ± SD of three experiments; for percentage of apoptotic cells: Figure 3A
Protocol: In order to verify whether compound 7a is able to induce apoptosis in HepG2 cells, we utilized FITC-Annexin V/PI staining and estimated the percentage of apoptotic cells by flow cytometry. We noted a concentration-dependent increase in the percentage of apoptotic cells when the cells were treated with compound 7a for 48 h at concentrations 2.5, 5, and 10 μM. […] Apoptosis was discriminated with the annexin V-FITC/PI test. Cells were seeded at 2 × 10^5/well in 10% FBS-DMEM into 6-well plates and treated with compounds 7a for 48 h. The cells were washed twice with cold phosphate buffered saline (PBS) and then resuspend in 1× Binding Buffer (0.1M Hepes/NaOH (pH 7.4), 1.4M NaCl, 25 mM CaCl2)) at a concentration of 1 × 10^5 cells/mL. 100 μL of the solution (1 × 10^4 cells) was transferred to a 5 mL culture tube, and 5 μL of FITC Annexin V (BD, Pharmingen, Franklin Lakes, NJ, USA) and 5 μL PI were added to each tube. The cells were gently resuspended by vortexing, and then were incubated for 30 min at RT (25 °C) in the dark. After incubation, 200 μL PBS was added to each tube. The analysis was performed with the system software (CellQuest; BD Biosciences, Franklin Lakes, NJ, USA). Analysis is as follows: lower left quadrant, viable cells (Annexin V−/PI−); lower right quadrant, early apoptotic cells (Annexin V+/PI−); upper right quadrant, late apoptotic cells (annexin V+/PI+); upper left quadrant, necrotic cells (annexin V−/PI+). The percentage of cells positive for PI and Annexin V-FITC was reported inside the quadrants.

HepG2 cells [2] = test: Wound healing assay (cell migration); assay type: cell-based; settings: Homo sapiens, 48 h, read-out: Inhibition (%) of migration (cell inhibitory rate)
Protocol: To evaluate the effect of compound 7a on cancer migration, a wound healing assay was conducted to determine whether compound 7a could prevent HepG2 cell migration. After culturing HepG2 cells for 48 h in the presence and absence of compound 7a at 0, 0.25, 0.5, and 1 μM, a pipette tip was streaked through the cell culture, resulting in a cell deficient space. The territory recovered by the HepG2 cells was used to observe the migration inhibition capability of compound 7a.
HepG2 cells were grown in DMEM medium containing growth factors at a cell density of 1 × 10^5 cells/mL for 24 h. A disposable […] plastic pipette tip was used to scratch the monolayer of cells in a streaking motion. Compounds were added to the streaked cell culture at the indicated concentrations. The streaked cells were then cultured in serum-free medium for an additional 48 h and photographed. To quantify the experimental results, the % cell inhibitory rate was calculated by the equation: cell inhibitory rate (%) = (1 − Ddrug/Dcontrol) × 100%, where Ddrug is the mean distance of cell migration in drug group and Dcontrol is the mean distance of cell migration in control group. Pictures of the initial wounded monolayers were compared with the corresponding pictures of cells at the end of the incubation, and data were presented as mean ± SD from three independent experiments.

procaspase-9 = test: Western blot, procaspase-9; assay type: cell-based, human; settings: 48 h
Protocol: (§1) Total cell lysates from cultured HepG2 cells treated with different concentrations of compound 7a for 48 h were obtained by lysing the cells in ice-cold RIPA buffer (1 PBS, 1% NP-40, 0.5% sodium deoxycholate and 0.1% SDS) containing […] PMSF, 5 mg/mL aprotinin, 5 mg/mL leupeptin, 5 mg/mL pepstatin and […] NaF. After centrifugation at 12,000 rpm for 10 min, the protein in the supernatant was quantified by the Bradford method (BIO-RAD, Hercules, CA, USA) using a Multimode Varioscan instrument (Thermo Fischer Scientific, Waltham, MA, USA). Twenty micrograms of protein per lane was applied in 12% SDS polyacrylamide gel. After electrophoresis, the protein was transferred to a polyvinylidine difluoride membrane (Amersham Biosciences, Marlborough, MA, USA). The membrane was blocked at room temperature for 2 h in TBST containing 5% blocking powder (Santa Cruz, Dallas, TX, USA). The membrane was washed with TBST for 5 min, and the primary antibody was added and incubated at 4 °C overnight (O/N). Bax (5023, CST, Danvers, MA, USA), Bcl-2 (15071, CST), cytochrome c (4280, CST), procaspase-9 (AB138412, Abcam, Cambridge, MA, USA), procaspase-3 (AB32150, Abcam), caspase-3 (66470-2-lg, Proteintech Group, Rosemont, IL, USA) and GAPDH (AB8245, Abcam) antibodies were employed. After three TBST washes, the membrane was incubated with the corresponding horseradish peroxidase-labeled secondary antibody (1:5000) (Santa Cruz) at room temperature for 2 h. Membranes were washed with TBST for 15 min five times and the protein blots were visualized with chemiluminescence reagent (Thermo Fischer Scientific Ltd.). The X-ray films were developed with a developer and fixed with fixer solution. The grey levels were analyzed using ImageQuant LAS 4000 system (GE, Marlborough, MA, USA).

procaspase-3 = test: Western blot, procaspase-3; assay type: cell-based, human; settings: 48 h
Protocol: as §1

Bax = test: Western blot, Bax; assay type: cell-based, human; settings: 48 h
Protocol: as §1

caspase-3 = test: Western blot, cleaved caspase-3; assay type: cell-based, human; settings: 48 h
Protocol: as §1

Bcl-2 = test: Western blot, Bcl-2; assay type: cell-based, human; settings: 48 h
Protocol: as §1

cytochrome c = test: Western blot, cytochrome c; assay type: cell-based, human; settings: 48 h
Protocol: as §1

Cc1cc(O)c2c(c1)C(=O)c1cc(OCCCOC(=O)[C@@H](C)N)cc(O)c1C2=O.O=C(O)C(F)(F)F [Compound 7a, (R)-1-(3-(4,5-Dihydroxy-7-methyl-9,10-dioxo-9,10-dihydroanthracen-2-yloxy)propoxy)-1-oxopropan-2-aminium 2,2,2-trifluoroacetate]
Apoptosis percentage, Early apoptosis (HepG2 cells [1]; HepG2, 2.5 μM): 2.91 ± 0.45% | Apoptosis percentage, Late apoptosis (HepG2 cells [1]; HepG2, 2.5 μM): 3.69 ± 0.48% | Apoptosis percentage, Overall apoptosis (HepG2 cells [1]; HepG2, 2.5 μM): 6.59 ± 0.93% | percentage of apoptotic cells (HepG2 cells [1]; HepG2, 5 μM, 48 h): 22.2% | Apoptosis percentage, Early apoptosis (HepG2 cells [1]; HepG2, 5 μM): 15.93 ± 0.76% | Apoptosis percentage, Late apoptosis (HepG2 cells [1]; HepG2, 5 μM): 7.51 ± 0.68% | Apoptosis percentage, Overall apoptosis (HepG2 cells [1]; HepG2, 5 μM): 23.450 ± 1.07% | percentage of apoptotic cells (HepG2 cells [1]; HepG2, 10 μM, 48 h): 50.7% | Apoptosis percentage, Early apoptosis (HepG2 cells [1]; HepG2, 10 μM): 37.73 ± 0.97% | Apoptosis percentage, Late apoptosis (HepG2 cells [1]; HepG2, 10 μM): 14.63 ± 1.17% | Apoptosis percentage, Overall apoptosis (HepG2 cells [1]; HepG2, 10 μM): 52.00 ± 1.41% | viability at 2.5 µM (HepG2 cells [1]; Homo sapiens, HepG2, 2.5 μM, 48 h, representative plot, read-out: Q4 (Annexin V−/PI−, viable cells)): 93.3% | viability at 5 µM (HepG2 cells [1]; Homo sapiens, HepG2, 5.0 μM, 48 h, representative plot, read-out: Q4 (Annexin V−/PI−, viable cells)): 74.2% | viability at 10 µM (HepG2 cells [1]; Homo sapiens, HepG2, 10 μM, 48 h, representative plot, read-out: Q4 (Annexin V−/PI−, viable cells)): 46.9% | inhibition at 0.25 µM (HepG2 cells [2]; HepG2, 0.25 μM): 12.6 ± 1.69% | inhibition at 0.5 µM (HepG2 cells [2]; HepG2, 0.5 μM): 23.7 ± 0.59% | inhibition at 1 µM (HepG2 cells [2]; HepG2, 1 μM): 40.2 ± 2.92% | Relative expression level, procaspase-9 (procaspase-9; HepG2, 2.5 μM): 0.600 ± 0.082 | Relative expression level, procaspase-9 (procaspase-9; HepG2, 5 μM): 0.297 ± 0.058 | Relative expression level, procaspase-9 (procaspase-9; HepG2, 10 μM): 0.223 ± 0.029 | Relative expression level, Full length procaspase-3 (procaspase-3; HepG2, 2.5 μM): 0.78 ± 0.012 | Relative expression level, procaspase-3 (procaspase-3; HepG2, 2.5 μM): 0.510 ± 0.132 | Relative expression level, Full length procaspase-3 (procaspase-3; HepG2, 5 μM): 0.220 ± 0.019 | Relative expression level, procaspase-3 (procaspase-3; HepG2, 5 μM): 0.317 ± 0.031 | Relative expression level, Full length procaspase-3 (procaspase-3; HepG2, 10 μM): 0.152 ± 0.009 | Relative expression level, procaspase-3 (procaspase-3; HepG2, 10 μM): 0.170 ± 0.053 | Relative expression level, Bax (Bax; HepG2, 2.5 μM): 1.180 ± 0.046 | Relative expression level, Bax (Bax; HepG2, 5 μM): 1.347 ± 0.081 | Relative expression level, Bax (Bax; HepG2, 10 μM): 1.593 ± 0.112 | Relative expression level, Cleaved Caspase-3 (caspase-3; HepG2, 2.5 μM): 0.056 ± 0.011 | Relative expression level, Cleaved Caspase-3 (caspase-3; HepG2, 5 μM): 0.143 ± 0.013 | Relative expression level, Cleaved Caspase-3 (caspase-3; HepG2, 10 μM): 0.185 ± 0.026 | Relative expression level, Bcl-2 (Bcl-2; HepG2, 2.5 μM): 0.685 ± 0.025 | Relative expression level, Bcl-2 (Bcl-2; HepG2, 5 μM): 0.312 ± 0.012 | Relative expression level, Bcl-2 (Bcl-2; HepG2, 10 μM): 0.268 ± 0.022 | Relative expression level, cytochrome c (cytochrome c; HepG2, 2.5 μM): 1.407 ± 0.015 | Relative expression level, cytochrome c (cytochrome c; HepG2, 5 μM): 1.663 ± 0.110 | Relative expression level, cytochrome c (cytochrome c; HepG2, 10 μM): 2.220 ± 0.387
